According to US20240299358A1, “COMPOSITIONS AND METHODS FOR DIAGNOSIS AND TREATMENT OF AUTOIMMUNE DISEASES” (DUKE UNIVERSITY, priority 2021, published 2024):
“Also recorded” adds a separate entry of the source.

Columns and labels:
[1] = tested on: collagen induced arthritic (CIA) mouse model; experiment: Therapeutic efficacy in CIA mouse model (clinical score and joint histology); assay type: in vivo; settings: 30 mg/kg QD
Experimental: FIGS. 9A-9E illustrate therapeutic potential of eHsp90 targeted therapies for the treatment of auto immune diseases. […] FIG. 9D are representative photomicrographs of forepaw, knee and ankle from a disease control (Naïve), diseased vehicle treated and HS-131 treated animals. “W” identifies wrist, arrows identifies representative affected joints, and “S” identifies inflammation. […] Experiment was performed once with 12 biological replicates per group.
(§1) CIA Disease: Collagen was prepared at 4 mg/ml in 0.01 N acetic acid. Equal volumes of 4 mg/ml collagen and 5 mg/ml Freund's complete adjuvant were emulsified by hand mixing with syringes for approximately 5 min, at which point a bead of this material holds its form when placed in water. On study days 0 and 21, animals were anesthetized with isoflurane and given intradermal injections of a total of 400 μg of type II collagen in Freund's complete adjuvant at the base of the tail.
CIA Experimental Design: Mice were randomized into treatment groups by body weight on study day 18. Animals were treated from day 21-36 of the study with either 20 μL of HS-131 (30 mg/kg) PO, QD or vehicle (DMSO) PO, QD. On study day 36, the mice were euthanized for necropsy. Clinical scores were given for each of the paws (right front, left front, right rear, left rear) on study days 21-36. 0=normal, 1=one hind or fore paw joints affected or minimal diffuse erythema and swelling, 2=two hind or fore paw joints affected or moderate diffuse erythema and swelling, 3=three hind or fore paw joints affected or moderate diffuse erythema and swelling, 4=four hind or fore paw joints affected or marked diffuse erythema and swelling, 5=entire paw affected, severe diffuse erythema and severe swelling, unable to flex digits. Experimenter was blinded from the treatment group during clinical evaluation and scoring.
Immunohistological Staining: After 24-48 hours in fixative and 4-5 days in 5% formic acid for decalcification, tissues were trimmed, and processed for paraffin embedding. Paws were embedded in paraffin in the frontal plane and the knees were embedded with the patella facing down. Ankles, if left attached to the hind paw, were also embedded in the frontal plane but may be detached and sectioned in the sagittal plane for special purposes. Sections were cut and stained with toluidine blue.
0=Normal. 0.5=Very minimal, affects only 1 joint or minimal multifocal periarticular infiltration of inflammatory cells. 1=Minimal infiltration of inflammatory cells in synovium and periarticular tissue of affected joints. 2=Mild infiltration of inflammatory cells. When referring to paws, generally restricted to affected joints (1-3 affected). 3=Moderate infiltration with moderate edema. When referring to paws, restricted to affected joints, generally 3-4 joints and the wrist or ankle. 4=Marked infiltration affecting most areas with marked edema, 1 or 2 unaffected joints may be present. 5=Severe diffuse infiltration with severe edema affecting all joints (to some extent) and periarticular tissues.
0=Normal. 0.5=Very minimal, affects only one area of the synovium or minimal multifocal periarticular infiltration of inflammatory cells. 1=Minimal infiltration of inflammatory cells in synovium and periarticular tissue of affected synovial areas. 2=Mild diffuse infiltration of inflammatory cells. 3=Moderate diffuse infiltration of inflammatory cells. 4=Marked diffuse infiltration of inflammatory cells. 5=Severe diffuse infiltration of inflammatory cells.
0=Normal. 0.5=Very minimal=Affects marginal zones only of one to several areas (knees) or joints (paws). 1=Minimal=Generally minimal to mild loss of toluidine blue staining (proteoglycan) with no obvious chondrocyte loss or collagen disruption in affected joints/areas. 2=Mild=Generally mild loss of toluidine blue staining (proteoglycan) with focal areas of chondrocyte loss and/or collagen disruption in some affected joints/areas. […]

eHsp90 = experiment: In vivo tracking of eHsp90 expression in CIA mouse model of RA (flow cytometry, CryoViz imaging)
Experimental: FIG. 5A is a schematic of CIA mouse model of RA experimental design, wherein mice were inoculated with CIA on day 0) and 21. […] 6-hours post treatment mice were whole body cryopreserved. […] Gated regions indicate CD4 and CD8 T-Cell populations isolated from individual mice. eHsp90 expression in CD4 and CD8 T cells 6 hours post HS-131 or HS-198 treatment. N=3+SD. Experiments represent 3 biological replicates.
as §1
CryoViz™ Imaging: Whole mice were imaged at 10.23 μm×10.23 μm in-plane resolution using an Olympus MVX-10 microscope with a 1X objective and 0.63× magnification and 40 μm section thickness, using the Cryo Viz™ (BioInVision, Inc., Cleveland, USA). CryoViz™ is a fully automated, serial sectioning-and-imaging system which provides 3-dimensional, tiled, microscopic anatomical bright field and molecular fluorescence images over large fields-of-view such as a whole mouse. Images were acquired using a dual band FITC/TxRed fluorescence filter (Chroma, Inc., Rockingham, VT), a liquid crystal RGB filter and a low-noise monochrome camera. Raw images acquired by the Cryo Viz™ were processed to generate 3D color anatomical brightfield and molecular fluorescence volumes using the Cryo Viz™ Preprocessor software (BioIn Vision, Inc., Cleveland, Ohio). These 3D volumetric image data were then processed using the CryoViz™ 3D Visualizer software (BioInVision, Inc., Cleveland, USA) to obtain 3D reconstructed brightfield and fluorescence volume renderings and movies with 2D slice cutaway animations, showing the 2D/3D biodistribution of TxRed labeled HS-131 within the mouse volume.
This was consistently seen in cell culture, tumor cell xenografts and mouse models of spontaneous metastatic disease (Barrott et al. Chem Biol 20. 1187-1197 (2013)). […] To determine if this phenomenon occurred within the context of a fully functional immune system, the collagen induced arthritic (CIA) mouse model of human rheumatoid arthritis (RA) was utilized (Rice et al. Arthritis Rheum 58. 3765-3775 (2008)). Mice (DBA/IlacJ ˜8 weeks old) reliably develop polyarthritis when immunized against bovine type II collagen (Scarneo et al. Arthritis Res Ther 21, 292 (2019): Campbell et al., Ann Rheum Dis 56, 364-368 (1997)). The disease that occurs is usually non-symmetric, and any combination of paws/joints may be affected. Mice were injected […] with bovine collagen at Day (and then again 21 days later (FIG. 5A). This second injection triggered the development of the CIA related symptoms over the next several days within the joints. A primary mediator of local inflammatory responses in autoimmunity are invading T cell populations recognizing foreign antigens. To determine if invading T cells at sites of active disease expressed eHsp90, the animals were injected with HS-131 or HS-198. This was done at the peak of RA symptoms following the second immune challenge. After 6 hours, the animals were euthanized, immediately cryo-frozen in liquid nitrogen and cryo-sectioned (see, FIG. 5A).
Approximately, 500 40 μm slices were made and each slice imaged with both bright field and by fluorescence at Ex640 nm/Em680 nm. Evaluation of the biodistribution was then made by histological examination of individual slices and after in silico reconstruction of the entire mouse anatomy (see, FIGS. 5B-5E).

Cc1nn(-c2ccc(C(N)=O)c(NCCCOCCOCCOCCOCCOCCCNCc3ccc(C(=C\C=C4\N(CCCCS(=O)(=O)[O-])c5ccccc5C4(C)C)/C=C/C4=[N+](CCCCS(=O)(=O)O)c5ccccc5C4(C)C)cc3)c2)c2c1C(=O)CC(C)(C)C2 [HS-131]
pathogenesis of disease development (animals developing disease) ([1]; day 21-36, N=12/group (FIG. 9A)): comparable to the vehicle control | reduction of bone resorption, histological scoring ([1]; day 36, vs vehicle (FIG. 9E)): 35% | reduction of cartilage damage, histological scoring ([1]; day 36, vs vehicle (FIG. 9E)): 36% | reduction of inflammation, histological scoring ([1]; day 36, vs vehicle (FIG. 9E)): 27% | reduction of pannus, histological scoring ([1]; day 36, vs vehicle (FIG. 9E)): 35% | reduction of periosteal bone, histological scoring ([1]; day 36, vs vehicle (FIG. 9E)): 29% | mean clinical arthritic score ([1]; throughout study period, vs vehicle, p<.001 (FIG. 9B)): significantly reduced | decrease in clinical score, area under the curve ([1]; vs vehicle (FIG. 9C)): ~23% | probe uptake in joints of naïve non diseased animal compared to CIA diseased animal (eHsp90; 10 nmoles tail vein, 6 hours post injection (FIGS. 6A-6C)): no marked HS-131 in the joints | systemic distribution in whole-body reconstruction of CIA mice (eHsp90; 6 hours post tail vein injection): largely confined to areas of active immune cell invasion | probe signal (eHsp90 expression) in T cells of PBMC populations from CIA mice by flow cytometry (eHsp90; 6 hours post tail vein injection, CD4 and CD8 T cells (FIG. 5B)): pronounced eHsp90 expression | probe localization in hind leg, knee, hip and paw of CIA mouse (eHsp90; 6 hours post tail vein injection, cryo-sections (FIG. 5C)): marked increase | fluorescence associated with the lower intestine of CIA mice (eHsp90; 24 hours post HS-131 injection (FIG. 7B)): no discrete fluorescence | route of elimination / clearance (eHsp90; mice): via the hepatobiliary system and intestines; also recorded: exclusively eliminated through the biliary system and intestine; also recorded: rapid hepatobiliary clearance
